Results published in patent publication US7879795B2, “Enhancement of tigecycline potency using efflux pump inhibitors” (Mpex Pharmaceuticals, Inc., priority 2004, dated 2011).

Columns and labels:
[1] = Tissue levels after 5 day repeated dosing in rat; type: in vivo; details: 20 mg/kg twice daily for 5 days, 6 hours after last dose
Description: The decreased tissue accumulation of compound 3 vis-a-vis 1 was confirmed in a multi-dose experiment. Rats received 20 mg/kg of either compound twice daily for 5 days. Animal were sacrificed 6 hours after the last dose and levels of compounds in kidneys, liver and lung were determined. FIG. 14 depicts the measured tissue levels. Approximately 100-fold, 60-fold, and 10-fold less compound 3 accumulated in kidney, liver and lung respectively, as compared to compound 1.

[2] = tested on: Klebsiella pneumonia, Proteus mirabilis, Morganella morganii, P. aeruginosa strains; assay: Tigecycline susceptibility of various bacterial strains in combination with compound 21 (Example 85); type: cell-based; details: Example 85, written in present tense
Description: Standard CLSI methods for antimicrobial susceptibility testing, as outlined in National Committee for Clinical Laboratory Standards 2003, Methods for Dilution Antimicrobial Susceptibility Tests for Bacteria That Grow Aerobically—-6th ed., Approved Standard, NCCLS Document M7-A6, Vol 20 No. 2., are used to assess the activity of tigecycline in combination with compound 21. The following strains are tested: • Klebsiella pneumonia: G340, G595, G815, GC7335, GC7736, GC7737, tigecycline resistant mutants derived from G595 and G815 • Proteus mirabilis: G151, GC 7020, GC 6899, GC 6900, GC 7018, GC 7019 • Morganella morganii: G858, G1492, GC7676, GC7677, GC7743, GC7744 • P. aeruginosa: K767, K1523, K1525, XY1, XY3, K153, BXY1, BXY4, K1119, M1, M9, K1455.
Clinical isolates enriched with strains having a decreased susceptibility to tigecycline are also tested.

PAM 1020, wt = assay: Tigecycline potentiation checkerboard assay, PAM 1020; type: cell-based, P. aeruginosa; parameters: Tigecycline MIC in the presence of Compound 21: unit not given here; details: PAM 1020
Description: The ability of compound 21 to increase susceptibility to tigecycline was also assessed. The tigecycline potentiating activity of compound 21 was assessed by the checkerboard assay (Antimicrobial Combinations, Antibiotics in Laboratory Medicine, ed. Victor Lorian, M.D., Fourth edition, 1996, pp 333-338, which is incorporated herein by reference in its entirety) using a broth micro-dilution method performed as recommended by the CSLI (Clinical and Laboratory Standards Institute, formerly NCCLS) guidelines (National Committee for Clinical Laboratory Standards 2003. Methods for Dilution Antimicrobial Susceptibility Tests for Bacteria That Grow Aerobically—Sixth Edition; Approved Standard. NCCLS Document M7-A6, Vol 20 No. 2). In this assay, multiple dilutions of the two drugs, compound 21 and tigecycline, were tested alone and in combination, at concentrations equal to, above and below their respective minimal inhibitory concentrations (MICs). […] The stock solution was further diluted in Mueller Hinton Broth (MHB). Stock solutions were stored at −80° C.
The checkerboard assay was performed in microtiter plates. Tigecycline was diluted in the x axis, each column containing a single concentration of tigecycline. Compound 21 was diluted in the y axis, each row containing an equal concentration of the EPI. […] The assay was performed in MHB with a final bacterial inoculum of 5×10^5 CFU/ml (from an early-log phase culture). The microtiter plates were incubated for 20 hours at 35° C. and then read using a microtiter plate reader (Molecular Devices) at 650 nm, as well as by visual observation using a microtiter plate-reading mirror.

| SMILES | less compound 3 accumulated as compared to compound 1 ([1]; rat kidney) | less compound 3 accumulated as compared to compound 1 ([1]; rat liver) [fold] | less compound 3 accumulated as compared to compound 1 ([1]; rat lung) [fold] | effect on development of resistance to tigecycline [2] | effect on resistance to tigecycline in bacterial strains [2] | effect on susceptibility of the strains to tigecycline [2] | Tigecycline MIC in the presence of Compound 21 (PAM 1020, wt; Compound 21 0.625 μg/ml) | Tigecycline MIC in the presence of Compound 21 (PAM 1020, wt; Compound 21 1.25 μg/ml) | Tigecycline MIC in the presence of Compound 21 (PAM 1020, wt; Compound 21 5 μg/ml) | Tigecycline MIC in the presence of Compound 21 (PAM 1020, wt; Compound 21 10 μg/ml) | Tigecycline MIC in the presence of Compound 21 (PAM 1020, wt; Compound 21 20 μg/ml) | Tigecycline MIC in the presence of Compound 21 (PAM 1020, wt; Compound 21 40 μg/ml) | Tigecycline MIC in the presence of Compound 21 (PAM 1020, wt; Compound 21 […]) |
| --- | --- | --- | --- | --- | --- | --- | --- | --- | --- | --- | --- | --- | --- |
| NCCC[C@H](N)C(=O)N[C@H](CCc1ccccc1)C(=O)Nc1cnc2ccccc2c1 [Compound 3, 2-(S),5-Diamino-pentanoic acid [3-phenyl-1-(R)-(quinolin-3-ylcarbamoyl)-propyl]-amide] | Approximately 100 fold | ~60 | ~10 |  |  |  |  |  |  |  |  |  |  |
| NCCC[C@H](N)C(=O)N[C@H](Cc1ccc(C(F)(F)F)cc1)C(=O)Nc1cnc2ccccc2c1 [Compound 21, 2-(S),5-Diamino-pentanoic acid [1-(R)-(quinolin-3-ylcarbamoyl)-2-(4-trifluoromethyl-phenyl)-ethyl]amide] |  |  |  | reduces the development of resistance | decreases resistance to tigecycline | increases the susceptibility of the strains to tigecycline | 2 | 1 | 0.25 | 0.25 | 0.25 | 0.25 | 0.5 |
